Results published in US20080274892A1, “Novel Haloalkylsulfonanilide Derivative, Herbicide, and Method of Use Thereof” (priority 2005, published 2008).

Columns and labels:
barnyard glass = assay: Test Example 2: herbicidal efficacy on rice paddy weeds post-emergence; assay type: in vivo, Echinochloa crus-galli; settings: dosage 1000 g/ha; post-emergence, one leaf stage; 21 days after treatment
Summary of the method: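 Efficacy on paddy weeds was scored on a 0 to 4 growth-inhibition scale: 4 for 90%-100%, 3 for 70%-89%, 2 for 40%-69%, 1 for 1%-39% and 0 for 0%. Barnyard glass was grown in clay loam in 75 cm^2 pots under 5 cm of water in a hot house. It was compared with untreated pots 21 days after treatment.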

false pimpernel [1] = assay: Test Example 1: herbicidal efficacy on rice paddy weeds pre-emergence; assay type: in vivo, Lindernia pyxidaria; settings: dosage 1000 g/ha, 21 days
bulrush [2] = assay: as above; assay type: in vivo, Scirpus juncoides; settings: dosage 1000 g/ha, 21 days
bulrush [3] = assay: Test Example 2: herbicidal efficacy on rice paddy weeds post-emergence; assay type: in vivo, Scirpus juncoides; settings: dosage 1000 g/ha; post-emergence, one leaf stage; 21 days after treatment
false pimpernel [4] = assay: as above; assay type: in vivo, Lindernia pyxidaria; settings: dosage 1000 g/ha; post-emergence, one leaf stage; 21 days after treatment
[5] = system: transplanted paddy rice plant and Bulrush; assay: Test Example 5: selectivity between transplanted paddy rice plant and weeds; assay type: in vivo; settings: (highest dosage with no phytotoxicity to paddy rice)/(lowest dosage with effective level 4 on Bulrush); rice 3000-100 g/ha, Bulrush 300-10 g/ha; 21 days
Summary of the method: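 Scoring ran 21 days after treatment in a hothouse on a 0–4 scale (4 = 90–100%, 3 = 70–89%, 2 = 40–69%, 1 = 1–39%, 0 = none) relative to untreated plants. Post-emergence bulrush received 10, 30, 100 and 300 g/ha active ingredient. Transplanted rice received 100, 300, 1000 and 3000 g/ha to assess crop injury.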

bulrush [6] = assay: Test Example 4: low dosage test for rice paddy weeds; assay type: in vivo, Scirpus juncoides; settings: 300 g/ha as an active ingredient; plants treated at the one leaf stage; 21 days after treatment; vs untreated control
Summary of the method: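 Compound applied as a formulation at 300 g/ha to one-leaf bulrush grown in flooded clay loam (5 cm water) in a hot house. After 21 days, growth inhibition versus untreated plants rated on a 0–4 scale, with 4 meaning 90–100%.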

[7] = system: paddy rice plant (cultivar: Nihonbare); assay: Test Example 3: phytotoxicity test for transplanted paddy rice plant; assay type: in vivo; settings: dosage 1000 g/ha; transplanted rice, treated 5 days after transplantation; 21 days after treatment
Summary of the method: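 Clay loam soil was placed in a 75 cm^2 plastic pot and flooded to a water depth of 5 cm. Two Nihonbare paddy rice plants at the two-leaf stage were transplanted 1 cm deep and grown in a hot house. After treatment, pots stayed in the hot house for 21 days, and phytotoxicity was then graded against an untreated control.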

| SMILES | Burnyard grass post (herbicidal efficacy grade) (barnyard glass) | False pimpernel pre (herbicidal efficacy grade) (false pimpernel [1]) | Bulrush pre (herbicidal efficacy grade) (bulrush [2]) | Bulrush post (herbicidal efficacy grade) (bulrush [3]) | False pimpernel post (herbicidal efficacy grade) (false pimpernel [4]) | Selective Index [5] | Herbicide effect to Bulrush (bulrush [6]) | Phytotoxicity to paddy rice [7] |
| --- | --- | --- | --- | --- | --- | --- | --- | --- |
| CC(C)COC(=O)N(c1ccccc1CN1CC(C)(C)OC1=O)S(=O)(=O)C(F)(F)F [1-44] | 4 (90%-100% of herbicidal efficacy or phytotoxicity) | 4 (90%-100% of herbicidal efficacy or phytotoxicity) | 4 (90%-100% of herbicidal efficacy or phytotoxicity) | 4 (90%-100% of herbicidal efficacy or phytotoxicity) | 4 (90%-100% of herbicidal efficacy or phytotoxicity) | 30 | 4 (90%-100% of herbicidal efficacy or phytotoxicity) | 2 (40%-69% of herbicidal efficacy or phytotoxicity) |
| CC(C)COC(=O)N(c1ccccc1CN1CC2(CCCCC2)OC1=O)S(=O)(=O)C(F)(F)F [1-46] | 4 (90%-100% of herbicidal efficacy or phytotoxicity) | 4 (90%-100% of herbicidal efficacy or phytotoxicity) | 4 (90%-100% of herbicidal efficacy or phytotoxicity) | 4 (90%-100% of herbicidal efficacy or phytotoxicity) | 4 (90%-100% of herbicidal efficacy or phytotoxicity) | 10 | 4 (90%-100% of herbicidal efficacy or phytotoxicity) | 1 (1%-39% of herbicidal efficacy or phytotoxicity) |
| CC(C)COC(=O)N(c1ccccc1CN1C(=O)OC2CCCCC21)S(=O)(=O)C(F)(F)F (centres unmarked) [1-48] | 4 (90%-100% of herbicidal efficacy or phytotoxicity) | 4 (90%-100% of herbicidal efficacy or phytotoxicity) | 4 (90%-100% of herbicidal efficacy or phytotoxicity) | 4 (90%-100% of herbicidal efficacy or phytotoxicity) | 4 (90%-100% of herbicidal efficacy or phytotoxicity) | 10 | 3 (70%-89% of herbicidal efficacy or phytotoxicity) | 1 (1%-39% of herbicidal efficacy or phytotoxicity) |
| CC1(C)CN(Cc2ccccc2NS(=O)(=O)C(F)(F)F)C(=S)O1 [1-49] | 4 (90%-100% of herbicidal efficacy or phytotoxicity) | 4 (90%-100% of herbicidal efficacy or phytotoxicity) | 4 (90%-100% of herbicidal efficacy or phytotoxicity) | 4 (90%-100% of herbicidal efficacy or phytotoxicity) | 4 (90%-100% of herbicidal efficacy or phytotoxicity) | 10 | 4 (90%-100% of herbicidal efficacy or phytotoxicity) | 2 (40%-69% of herbicidal efficacy or phytotoxicity) |
| CC(C)COC(=O)N(c1ccccc1CN1CC(C)(C)OC1=S)S(=O)(=O)C(F)(F)F [1-50] | 4 (90%-100% of herbicidal efficacy or phytotoxicity) | 4 (90%-100% of herbicidal efficacy or phytotoxicity) | 4 (90%-100% of herbicidal efficacy or phytotoxicity) | 4 (90%-100% of herbicidal efficacy or phytotoxicity) | 4 (90%-100% of herbicidal efficacy or phytotoxicity) | 10 | 4 (90%-100% of herbicidal efficacy or phytotoxicity) | 2 (40%-69% of herbicidal efficacy or phytotoxicity) |
| CC[C@@H]1CN(Cc2ccccc2NS(=O)(=O)C(F)(F)F)C(=O)O1 [1-57] | 4 (90%-100% of herbicidal efficacy or phytotoxicity) | 4 (90%-100% of herbicidal efficacy or phytotoxicity) | 4 (90%-100% of herbicidal efficacy or phytotoxicity) | 4 (90%-100% of herbicidal efficacy or phytotoxicity) | 4 (90%-100% of herbicidal efficacy or phytotoxicity) | 10 | 4 (90%-100% of herbicidal efficacy or phytotoxicity) | 1 (1%-39% of herbicidal efficacy or phytotoxicity) |
| CC[C@@H]1CN(Cc2ccccc2N(C(=O)OCC(C)C)S(=O)(=O)C(F)(F)F)C(=O)O1 [1-58] | 4 (90%-100% of herbicidal efficacy or phytotoxicity) | 4 (90%-100% of herbicidal efficacy or phytotoxicity) | 4 (90%-100% of herbicidal efficacy or phytotoxicity) | 4 (90%-100% of herbicidal efficacy or phytotoxicity) | 4 (90%-100% of herbicidal efficacy or phytotoxicity) | ≧30 | 4 (90%-100% of herbicidal efficacy or phytotoxicity) | 1 (1%-39% of herbicidal efficacy or phytotoxicity) |
| CCC1(CC)CN(Cc2ccccc2NS(=O)(=O)C(F)(F)F)C(=O)O1 [1-61] | 4 (90%-100% of herbicidal efficacy or phytotoxicity) | 4 (90%-100% of herbicidal efficacy or phytotoxicity) | 4 (90%-100% of herbicidal efficacy or phytotoxicity) | 4 (90%-100% of herbicidal efficacy or phytotoxicity) | 4 (90%-100% of herbicidal efficacy or phytotoxicity) | 3 | 4 (90%-100% of herbicidal efficacy or phytotoxicity) | 1 (1%-39% of herbicidal efficacy or phytotoxicity) |
| CCC1(CC)CN(Cc2ccccc2N(C(=O)OCC(C)C)S(=O)(=O)C(F)(F)F)C(=O)O1 [1-62] | 4 (90%-100% of herbicidal efficacy or phytotoxicity) | 4 (90%-100% of herbicidal efficacy or phytotoxicity) | 4 (90%-100% of herbicidal efficacy or phytotoxicity) | 4 (90%-100% of herbicidal efficacy or phytotoxicity) | 4 (90%-100% of herbicidal efficacy or phytotoxicity) | 10 | 4 (90%-100% of herbicidal efficacy or phytotoxicity) | 1 (1%-39% of herbicidal efficacy or phytotoxicity) |
| CCCCOC(=O)N(c1ccccc1CN1CC(C)(C)OC1=O)S(=O)(=O)C(F)(F)F [1-63] | 4 (90%-100% of herbicidal efficacy or phytotoxicity) | 4 (90%-100% of herbicidal efficacy or phytotoxicity) | 4 (90%-100% of herbicidal efficacy or phytotoxicity) | 4 (90%-100% of herbicidal efficacy or phytotoxicity) | 4 (90%-100% of herbicidal efficacy or phytotoxicity) | ≧30 | 4 (90%-100% of herbicidal efficacy or phytotoxicity) | 2 (40%-69% of herbicidal efficacy or phytotoxicity) |
